Data taken from paper PMC7697615, “Selective Interactions of O-Methylated Flavonoid Natural Products with Human Monoamine Oxidase-A and -B” (Molecules, 2020).
“Also recorded” adds a separate entry of the source. Where two headings read alike, the source gives them in different places.

Tests used:
MAO-A [1] = target: T1, MAO-A (Homo sapiens, UniProt P21397); assay: Enzyme kinetics and mechanism study (Lineweaver-Burk), MAO-A; assay type: biochemical; conditions: for Type of Inhibition, Monoamine Oxidase-A: kinetics and dialysis
T1 construct: purchased BD Biosciences (Bedford, MA, USA)
T1 sequence (P21397 1-527): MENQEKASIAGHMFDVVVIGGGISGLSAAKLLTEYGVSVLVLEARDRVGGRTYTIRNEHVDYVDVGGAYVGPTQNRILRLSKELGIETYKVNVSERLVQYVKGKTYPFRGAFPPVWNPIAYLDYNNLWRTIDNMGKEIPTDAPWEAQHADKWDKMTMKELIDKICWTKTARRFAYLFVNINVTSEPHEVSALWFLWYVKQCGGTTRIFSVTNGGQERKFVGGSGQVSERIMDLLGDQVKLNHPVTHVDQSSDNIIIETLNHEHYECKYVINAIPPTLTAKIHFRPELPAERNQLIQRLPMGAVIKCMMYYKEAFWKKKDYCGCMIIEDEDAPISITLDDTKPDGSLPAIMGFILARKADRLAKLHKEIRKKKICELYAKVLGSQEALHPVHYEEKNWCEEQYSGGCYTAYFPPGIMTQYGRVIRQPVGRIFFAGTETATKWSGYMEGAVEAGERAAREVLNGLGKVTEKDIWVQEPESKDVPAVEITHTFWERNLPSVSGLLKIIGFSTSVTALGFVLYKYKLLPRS
Experimental: (§3) Three sets of assays were completed at varying concentrations of the substrate for each experiment, one control without inhibitor and the others with two different concentrations of the inhibitor. The data were evaluated by double reciprocal Lineweaver-Burk plots for determination of the Ki (i.e., inhibition/binding affinity) values.
(§4) For determination of the binding affinity of the inhibitor (Ki) to MAO-A and -B, the enzyme assays were carried out at different concentrations of kynuramine substrate (1.90 μM to 500 μM) and varying concentrations of the inhibitors/compound. The flavonoids (1–6) were tested at 0.030–0.100 μM for MAO-A and 0.100–0.500 μM for -B. The controls without inhibitor were also run simultaneously. The results were analyzed by SigmaPlot version 10 using standard double reciprocal Lineweaver-Burk plots for computing Km and Vmax values, which were further analyzed to determine the Ki values [18, 36, 37].

MAO-A [2] = target: T1, MAO-A; assay: MAO inhibition assay (kynuramine oxidative deamination), MAO-A; assay type: biochemical; conditions: for SI b (Selectivity index: MAO-A IC50/MAO-B IC50): ratio of IC50 values
Experimental: In this study, we have investigated the effect of the isolated constituents (1–6) on human recombinant MAO-A and -B. The kynuramine oxidation deamination assay was performed in 96-well plates as previously reported, with modification. A fixed concentration of kynuramine substrate and varying concentrations of test compounds or inhibitor were used to determine the IC50 values. Kynuramine concentrations for MAO-A and -B were 80 μM and 50 μM, respectively. […] The enzymatic reactions were initiated by the addition of MAO-A (5 μg/mL) or -B (12.5 μg/mL), and incubated for 20 min at 37 °C. The enzyme reactions were terminated by the addition of 78 μL of 2N NaOH. The formation of 4-hydroxyquinoline (the enzyme reaction end product) was recorded fluorometrically on a SpectraMax M5 fluorescence plate reader (Molecular Devices, Sunnyvale, CA, USA) with an excitation (320 nm) and emission (380 nm) wavelength, using the Soft MaxPro-6 program. The inhibition effects of enzyme activity were calculated as the percent of product formation compared to the corresponding controls (enzyme–substrate reaction) without inhibitors. The assay controls, to define the interference of the test compounds with the fluorescence measurements, were set up simultaneously, and the enzyme or the substrate was added after stopping the reaction.
(§1) The dose–response enzyme-inhibition curves were generated using Microsoft® Excel and the IC50 values were computed with XLfit®.

MAO-B [3] = target: T2, MAO-B (Homo sapiens, UniProt P27338); assay: MAO inhibition assay (kynuramine oxidative deamination), MAO-B; assay type: biochemical; design: purchased BD Biosciences (Bedford, MA, USA); conditions: kynuramine 50 μM; mean ± S.D. of at least triplicate observations
T2 sequence (P27338 1-520): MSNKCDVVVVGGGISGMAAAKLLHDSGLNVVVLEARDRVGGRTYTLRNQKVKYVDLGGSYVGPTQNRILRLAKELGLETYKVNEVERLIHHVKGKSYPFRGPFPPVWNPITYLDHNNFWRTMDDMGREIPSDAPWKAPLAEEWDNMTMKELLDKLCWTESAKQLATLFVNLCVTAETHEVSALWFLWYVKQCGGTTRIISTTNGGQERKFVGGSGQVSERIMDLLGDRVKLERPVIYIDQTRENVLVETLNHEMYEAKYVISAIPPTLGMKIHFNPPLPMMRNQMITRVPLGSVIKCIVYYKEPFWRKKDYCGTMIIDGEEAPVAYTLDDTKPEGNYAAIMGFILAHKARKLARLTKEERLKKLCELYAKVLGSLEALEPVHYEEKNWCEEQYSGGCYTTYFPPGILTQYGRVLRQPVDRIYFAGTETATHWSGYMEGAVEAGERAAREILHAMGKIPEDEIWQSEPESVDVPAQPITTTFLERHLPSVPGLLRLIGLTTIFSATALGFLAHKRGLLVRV
Experimental: In this study, we have investigated the effect of the isolated constituents (1–6) on human recombinant MAO-A and -B. The kynuramine oxidation deamination assay was performed in 96-well plates as previously reported, with modification. A fixed concentration of kynuramine substrate and varying concentrations of test compounds or inhibitor were used to determine the IC50 values. Kynuramine concentrations for MAO-A and -B were 80 μM and 50 μM, respectively. […] The enzyme reactions were terminated by the addition of 78 μL of 2N NaOH. The formation of 4-hydroxyquinoline (the enzyme reaction end product) was recorded fluorometrically on a SpectraMax M5 fluorescence plate reader (Molecular Devices, Sunnyvale, CA, USA) with an excitation (320 nm) and emission (380 nm) wavelength, using the Soft MaxPro-6 program. The inhibition effects of enzyme activity were calculated as the percent of product formation compared to the corresponding controls (enzyme–substrate reaction) without inhibitors. The assay controls, to define the interference of the test compounds with the fluorescence measurements, were set up simultaneously, and the enzyme or the substrate was added after stopping the reaction.
as §1

MAO-B [4] = target: T2, MAO-B; assay: Time-dependent inhibition assay, MAO-B; assay type: biochemical; design: purchased BD Biosciences (Bedford, MA, USA); conditions: pre-incubation 0–15 min; 3 3.0 μM, 4 1.0 μM, 6 2.0 μM
Experimental: To investigate if the binding of the inhibitor with MAO-A and -B followed time-dependent inhibition kinetics, the enzyme was pre-incubated with the inhibitor for different time periods (0–15 min). […] The controls without inhibitors were also run simultaneously. The activities of the MAO-A and -B enzymes were determined as described above and the percentage of enzyme activity remaining was plotted against the pre-incubation time to determine time-dependent inhibition.

MAO-B [5] = target: T2, MAO-B; assay: Enzyme-inhibitor complex equilibrium dialysis assay, MAO-B; assay type: binding; design: purchased BD Biosciences (Bedford, MA, USA); conditions: for MAO-B enzyme activity recovered after dialysis / inhibition at 50 µM: 50.0 μM; for inhibition at 50 µM: read-out: Inhibition of MAO-B activity on incubation (before dialysis); for Reversibility of binding with MAO-B: 20 min incubation, dialyzed overnight, 3, 4, 6 at 50.0 μM, deprenyl 0.500 μM
Experimental: (§2) Enzyme-inhibitors mostly produce inhibition of the target enzyme through the formation of an enzyme–inhibitor complex. The formation of the enzyme–inhibitor complex may be accelerated in the presence of a high concentration of the test inhibitor. The property of binding of test compounds to MAO-A or -B was determined by the formation of the enzyme–inhibitor complex by incubation of the enzyme with a high concentration of the test compound. This was followed by extensive equilibrium dialysis of the enzyme–inhibitor complex. Recovery of catalytic activity of MAO-A and -B was determined before and after the dialysis. […] After 20 min incubation at 37 °C, the reaction was stopped by chilling the tubes in an ice bath. […] All the samples with enzyme–inhibitor complex were individually dialyzed against potassium phosphate buffer (25 mM; pH 7.4) at 4 °C for 16–18 h (including three buffer changes). The control enzyme (without inhibitor) was also run through the same procedure and the activity of the enzyme was determined before and after the dialysis.

MAO-B [6] = target: T2, MAO-B; assay: Enzyme kinetics and mechanism study (Lineweaver-Burk), MAO-B; conditions: for Type of Inhibition, Monoamine Oxidase-B: kinetics and dialysis
Experimental: as §3, §4

MAO-A [7] = target: T1, MAO-A; assay: Enzyme-inhibitor complex equilibrium dialysis assay, MAO-A; assay type: binding; conditions: 20 min incubation, dialyzed overnight; 1 10.0 μM, 2 25.0 μM, 3 25.0 μM, 5 100.0 μM
Experimental: as §2

[8] = double reciprocal plots, mean ± SD of three observations, read-out: Ki, Monoamine Oxidase-A
[9] = kynuramine 80 μM, mean ± S.D. of at least triplicate observations, read-out: MAO-A IC50

| SMILES | Ki (MAO-A [1]; [8]) | IC50 (MAO-A [2]; [9]) | SI b (Selectivity index: MAO-A IC50/MAO-B IC50) (MAO-A [2]) | IC50 (MAO-B [3]) | Time dependence of MAO-B inhibition (MAO-B [4]) | MAO-B enzyme activity recovered after dialysis (MAO-B [5]) | inhibition at 50 µM (MAO-B [5]) | Reversibility of binding with MAO-B (MAO-B [5]) | Ki (MAO-B [6]) | Type of Inhibition, Monoamine Oxidase-B (MAO-B [6]) | melting point | Type of Inhibition, Monoamine Oxidase-A (MAO-A [1]) | Selectivity for MAO-A vs. MAO-B (MAO-A [2]) | Ki (MAO-A [1]) | IC50 (MAO-A [2]) | Reversibility of binding with MAO-A (MAO-A [7]) |
| --- | --- | --- | --- | --- | --- | --- | --- | --- | --- | --- | --- | --- | --- | --- | --- | --- |
| COc1ccc(-c2oc3cc(O)cc(O)c3c(=O)c2OC)cc1 [Compound 1, 3,4′-di-O-methylkaempferol] | 37.9 ± 0.8 nM | 33 ± 42 nM | 0.0034 | 9670 ± 2310 nM |  |  |  |  |  |  |  | reversible-competitive; also recorded: Competitive/Reversible | > 292 fold |  |  |  |
| COc1cc(O)cc(O)c1C(=O)/C=C/c1ccccc1 [Compound 3, 2′,4′-dihydroxy-6′-methoxy-chalcone] |  |  | 0.432 | 2700 ± 794 nM | did not show time-dependent inhibition | 80% | > 60% | reversible; also recorded: reversibly | 1240 ± 600 nM | reversible and competitive |  | reversible-competitive; also recorded: Competitive/Reversible | ~ 2 fold | 633 ± 107 nM | 1170 ± 513 nM |  |
| COc1ccc(-c2oc3cc(O)cc(O)c3c(=O)c2O)cc1 [Compound 5, 4′-O-methylkaempferol] | 3530 ± 265 nM | 1350 ± 198 nM |  | > 100000 nM |  |  |  |  |  |  |  | partially-reversible mixed-type |  |  |  | partial reversibility; also recorded: partially reversible |

Second part, led by results:

| Ki (MAO-A [1]; [8]) | IC50 (MAO-A [2]; [9]) | SI b (Selectivity index: MAO-A IC50/MAO-B IC50) (MAO-A [2]) | IC50 (MAO-B [3]) | Time dependence of MAO-B inhibition (MAO-B [4]) | MAO-B enzyme activity recovered after dialysis (MAO-B [5]) | inhibition at 50 µM (MAO-B [5]) | Reversibility of binding with MAO-B (MAO-B [5]) | Ki (MAO-B [6]) | Type of Inhibition, Monoamine Oxidase-B (MAO-B [6]) | melting point | SMILES | Type of Inhibition, Monoamine Oxidase-A (MAO-A [1]) | Selectivity for MAO-A vs. MAO-B (MAO-A [2]) | Ki (MAO-A [1]) | IC50 (MAO-A [2]) | Reversibility of binding with MAO-A (MAO-A [7]) |
| --- | --- | --- | --- | --- | --- | --- | --- | --- | --- | --- | --- | --- | --- | --- | --- | --- |
| 339 ± 219 nM | 407 ± 75 nM |  | 5930 ± 833 nM |  |  |  |  |  |  |  | COc1cc(O)c(C(=O)/C=C/c2ccccc2)c(OC)c1 [Compound 2, 2′-hydroxy-4′,6′-dimethoxy-chalcone] | Competitive/Reversible |  |  |  |  |
|  | 5170 ± 1110 nM | 6.451 | 800 ± 180 nM | did not show time-dependent inhibition | 80% | > 60% | reversible; also recorded: reversibly | 809 ± 93 nM | reversible and competitive | 275 to 277 °C | COc1cc2oc(-c3ccc(O)cc3)cc(=O)c2c(O)c1C [Compound 4, 8-demethylsideroxylin] |  |  |  |  |  |
|  | 87500 ± 3540 nM | 100.0 | 875 ± 35 nM | did not show time-dependent inhibition | 80% | > 60% | reversible; also recorded: reversibly | 874 ± 69 nM | reversible and competitive |  | COc1cc(-c2cc(=O)c3c(O)cc(O)cc3o2)c(OC)c(OC)c1OC [Compound 6, 5,7-dihydroxy-2,3,4,5-tetramethoxyflavone] |  |  |  |  |  |
